Measured values: patent US20170045513A1, “METHODS OF DIAGNOSING CELIAC DISEASE USING IP-10” (ImmusanT, Inc., priority 2014, published 2017)
Non-standard residues stand in square brackets, D forms with d. pGlu = O=C1CC[C@@H](C(=O)O)N1

Test system: gluten-reactive T cells
Experiment: 96-well plate whole blood cytokine release, IFNγ by MAGPIX multiplex bead assay
Type: cell-based, human
Conditions: for Percent of maximal response to individual gluten peptides, IFNg: after oral gluten challenge; for IFNγ WB MAGPIX % max Mean: n = 8, blood after oral gluten challenge, individual peptides 5 μM (Peptide 2* of P14, Pepscan: 10 μg/mL (5.45 μM))

Row | Substance | Percent of maximal response to individual gluten peptides, IFNg (Subject 2, Max. 116 pg/mL) | Percent of maximal response to individual gluten peptides, IFNg (Subject 3, Max. 799 pg/mL) | Percent of maximal response to individual gluten peptides, IFNg (Subject 4, Max. 136 pg/mL) | Percent of maximal response to individual gluten peptides, IFNg (Subject 6, Max. 72 pg/mL) | Percent of maximal response to individual gluten peptides, IFNg (Subject 7, Max. 17 pg/mL) | Percent of maximal response to individual gluten peptides, IFNg (Subject 8, Max. 47 pg/mL) | Percent of maximal response to individual gluten peptides, IFNg (Subject 9, Max. 67 pg/mL) | Percent of maximal response to individual gluten peptides, IFNg (Subject 10, Max. 229 pg/mL) | IFNγ WB MAGPIX % max Mean | whole blood IFNγ release relative to that stimulated by Peptide 14 (whole blood incubations after oral gluten challenge)
1 | (pE)LQPFPQPELPYPQPQ-amide ([pGlu]LQPFPQPELPYPQPQ-NH2; SMILES CC(C)C[C@H](NC(=O)[C@@H]1CCC(=O)N1)C(=O)N[C@@H](CCC(N)=O)C(=O)N1CCC[C@H]1C(=O)N[C@@H](Cc1ccccc1)C(=O)N1CCC[C@H]1C(=O)N[C@@H](CCC(N)=O)C(=O)N1CCC[C@H]1C(=O)N[C@@H](CCC(=O)O)C(=O)N[C@@H](CC(C)C)C(=O)N1CCC[C@H]1C(=O)N[C@@H](Cc1ccc(O)cc1)C(=O)N1CCC[C@H]1C(=O)N[C@@H](CCC(N)=O)C(=O)N1CCC[C@H]1C(=O)N[C@@H](CCC(N)=O)C(N)=O) [Peptide 1] | 100 % of max | 14 % of max | 26 % of max | 25 % of max | 43 % of max | 6 % of max | 43 % of max | 7 % of max | 33 % max | –
2 | (pE)PEQPEQPFPEQPQQ-amide ([pGlu]PEQPEQPFPEQPQQ-NH2; SMILES NC(=O)CC[C@H](NC(=O)[C@H](CCC(N)=O)NC(=O)[C@@H]1CCCN1C(=O)[C@H](CCC(N)=O)NC(=O)[C@H](CCC(=O)O)NC(=O)[C@@H]1CCCN1C(=O)[C@H](Cc1ccccc1)NC(=O)[C@@H]1CCCN1C(=O)[C@H](CCC(N)=O)NC(=O)[C@H](CCC(=O)O)NC(=O)[C@@H]1CCCN1C(=O)[C@H](CCC(N)=O)NC(=O)[C@H](CCC(=O)O)NC(=O)[C@@H]1CCCN1C(=O)[C@@H]1CCC(=O)N1)C(N)=O) [Peptide 11] | 0 % of max | 0 % of max | 0 % of max | 0 % of max | 0 % of max | 0 % of max | 0 % of max | 0 % of max | 0 % max | –
3 | (pE)PEQPFPEQPIPEQPQPYP-amide ([pGlu]PEQPFPEQPIPEQPQPYP-NH2; SMILES CC[C@H](C)[C@H](NC(=O)[C@@H]1CCCN1C(=O)[C@H](CCC(N)=O)NC(=O)[C@H](CCC(=O)O)NC(=O)[C@@H]1CCCN1C(=O)[C@H](Cc1ccccc1)NC(=O)[C@@H]1CCCN1C(=O)[C@H](CCC(N)=O)NC(=O)[C@H](CCC(=O)O)NC(=O)[C@@H]1CCCN1C(=O)[C@@H]1CCC(=O)N1)C(=O)N1CCC[C@H]1C(=O)N[C@@H](CCC(=O)O)C(=O)N[C@@H](CCC(N)=O)C(=O)N1CCC[C@H]1C(=O)N[C@@H](CCC(N)=O)C(=O)N1CCC[C@H]1C(=O)N[C@@H](Cc1ccc(O)cc1)C(=O)N1CCC[C@H]1C(N)=O) [Peptide 14] | 53 % of max | 100 % of max | 100 % of max | 100 % of max | 99 % of max | 100 % of max | 98 % of max | 100 % of max | 94 % max | –
4 | (pE)PEQPIPEQPQPYPQQ-amide ([pGlu]PEQPIPEQPQPYPQQ-NH2; SMILES CC[C@H](C)[C@H](NC(=O)[C@@H]1CCCN1C(=O)[C@H](CCC(N)=O)NC(=O)[C@H](CCC(=O)O)NC(=O)[C@@H]1CCCN1C(=O)[C@@H]1CCC(=O)N1)C(=O)N1CCC[C@H]1C(=O)N[C@@H](CCC(=O)O)C(=O)N[C@@H](CCC(N)=O)C(=O)N1CCC[C@H]1C(=O)N[C@@H](CCC(N)=O)C(=O)N1CCC[C@H]1C(=O)N[C@@H](Cc1ccc(O)cc1)C(=O)N1CCC[C@H]1C(=O)N[C@@H](CCC(N)=O)C(=O)N[C@@H](CCC(N)=O)C(N)=O) [Peptide 3] | 35 % of max | 92 % of max | 66 % of max | 63 % of max | 6 % of max | 89 % of max | 60 % of max | 81 % of max | 62 % max | one-third less
5 | (pE)PQPYPEQPQPFPQQ-amide ([pGlu]PQPYPEQPQPFPQQ-NH2; SMILES NC(=O)CC[C@H](NC(=O)[C@H](CCC(N)=O)NC(=O)[C@@H]1CCCN1C(=O)[C@H](Cc1ccccc1)NC(=O)[C@@H]1CCCN1C(=O)[C@H](CCC(N)=O)NC(=O)[C@@H]1CCCN1C(=O)[C@H](CCC(N)=O)NC(=O)[C@H](CCC(=O)O)NC(=O)[C@@H]1CCCN1C(=O)[C@H](Cc1ccc(O)cc1)NC(=O)[C@@H]1CCCN1C(=O)[C@H](CCC(N)=O)NC(=O)[C@@H]1CCCN1C(=O)[C@@H]1CCC(=O)N1)C(N)=O) [Peptide 8] | 35 % of max | 24 % of max | 39 % of max | 6 % of max | 0 % of max | 42 % of max | 5 % of max | 45 % of max | 25 % max | –
6 | (pE)QPFPQPELPYPYPQ-amide ([pGlu]QPFPQPELPYPYPQ-NH2; SMILES CC(C)C[C@H](NC(=O)[C@H](CCC(=O)O)NC(=O)[C@@H]1CCCN1C(=O)[C@H](CCC(N)=O)NC(=O)[C@@H]1CCCN1C(=O)[C@H](Cc1ccccc1)NC(=O)[C@@H]1CCCN1C(=O)[C@H](CCC(N)=O)NC(=O)[C@@H]1CCC(=O)N1)C(=O)N1CCC[C@H]1C(=O)N[C@@H](Cc1ccc(O)cc1)C(=O)N1CCC[C@H]1C(=O)N[C@@H](Cc1ccc(O)cc1)C(=O)N1CCC[C@H]1C(=O)N[C@@H](CCC(N)=O)C(N)=O) [Peptide 16] | 65 % of max | 13 % of max | 16 % of max | 10 % of max | 100 % of max | 0 % of max | 39 % of max | 2 % of max | 31 % max | –
